PubChem BioAssay (NCI)
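Values below derive from 48-hour exposures of cells grown in 96-well plates, with endpoints linearly interpolated between the two concentrations bracketing the appropriate inhibition level. At the TGI there is no net growth.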

Columns and labels:
Experiment in all cases: NCI tumour cell line growth inhibition, 48 h
[1] = tested on: RXF 393 renal
[2] = tested on: UACC-62 melanoma
[3] = tested on: K-562 leukemia
[4] = tested on: DMS 273 small cell lung
[5] = tested on: A549 NSCLC
[6] = tested on: CAKI-1 renal
[7] = tested on: HOP-62 NSCLC
[8] = tested on: NCI-H23 lung
[9] = tested on: SNB-78 CNS
[10] = tested on: HOP-92 NSCLC
[11] = tested on: OVCAR-4 ovarian
[12] = tested on: ACHN renal
[13] = tested on: SF-295 CNS
[14] = tested on: A498 renal
[15] = tested on: EKVX NSCLC
[16] = tested on: CCRF-CEM leukemia
[17] = tested on: COLO 205 colon
[18] = tested on: NCI-H460 lung
[19] = tested on: XF 498 CNS
[20] = tested on: DLD-1 colon
[21] = tested on: MALME-3M melanoma
[22] = tested on: SF-268 CNS
[23] = tested on: SK-MEL-28 melanoma
[24] = tested on: UACC-257 melanoma
[25] = tested on: HCC-2998 colon
[26] = tested on: SK-MEL-5 melanoma
[27] = tested on: OVCAR-3 ovarian
[28] = tested on: SF-539 CNS
[29] = tested on: HT29 colon
[30] = tested on: HCT-116 colon
[31] = tested on: TK-10 renal
[32] = tested on: LOX IMVI melanoma
[33] = tested on: IGROV1 ovarian
[34] = tested on: U251 CNS
[35] = tested on: SN12C renal
[36] = tested on: SK-OV-3 ovarian
[37] = tested on: OVCAR-8 ovarian
[38] = tested on: RPMI-8226 leukemia
[39] = tested on: HOP-18 NSCLC
[40] = tested on: NCI-H226 lung
[41] = tested on: SNB-75 CNS
[42] = tested on: DMS 114 small cell lung
[43] = tested on: OVCAR-5 ovarian
[44] = tested on: KM12 colon
[45] = tested on: NCI-H522 lung
[46] = tested on: KM20L2 colon
[47] = tested on: SR leukemia
[48] = tested on: SK-MEL-2 melanoma
[49] = tested on: M14 melanoma
[50] = tested on: HCT-15 colon
[51] = tested on: 786-0 renal
[52] = tested on: UO-31 renal
[53] = tested on: MOLT-4 leukemia
[54] = tested on: SNB-19 CNS
[55] = tested on: M19-MEL melanoma
[56] = tested on: HL-60(TB) leukemia
[57] = tested on: LXFL 529 NSCLC
[58] = tested on: RXF-631 renal
[59] = tested on: SW-620 colon

Measured: TGI

CCCC(OCC)(OCC)OCC
> 100 µM: [1] | [2] | [3] | [4] | [5] | [6] | [7] | [8] | [9] | [10] | [11] | [12] | [13] | [14] | [15] | [16] | [17] | [18] | [19] | [20] | [21] | [22] | [23] | [24] | [25] | [26] | [27] | [28] | [29] | [30] | [31] | [32] | [33] | [34] | [35] | [36] | [37] | [38] | [39] | [40] | [41] | [42] | [43] | [44] | [45] | [46] | [47] | [48] | [49] | [50] | [51] | [52] | [53] | [54] | [55] | [56] | [57] | [58]

COC1=CC(=O)c2ccc(C(C)C)cc2C1(C)C1=NC(C)(C)CO1 (stereo unspecified)
> 100 µM: [1] | [2] | [3] | [4] | [5] | [6] | [7] | [8] | [10] | [11] | [12] | [13] | [15] | [16] | [17] | [18] | [19] | [20] | [21] | [22] | [23] | [24] | [59] | [26] | [27] | [28] | [29] | [30] | [31] | [33] | [34] | [35] | [36] | [37] | [38] | [39] | [40] | [41] | [42] | [44] | [45] | [46] | [47] | [48] | [49] | [50] | [51] | [52] | [53] | [54] | [55] | [56] | [57]
